Data taken from patent publication EP2698384A1, “Detection of synthetic cannabinoids” (priority 2012, dated 2014).
Structures can show the parent of a compound that is named as a salt. Where two headings read alike, the source gives them in different places.

Key:
Assay type in all cases: binding, sheep
Antibody to Immunogen V = system: Antibody to Immunogen V
How it was run: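 Plates coated with anti-Immunogen V IgG; RCS-8 standards (0–80 ng/ml in TBST) compete with hapten-HRP conjugate 1 h at 25°C, TMB readout at 450 nm. IC50 from 4-parameter fit as concentration at half the zero-standard OD; cross-reactivity from single-level cross-reactant versus calibration curve.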

[1] = system: Antibody to Immunogen III
How it was run: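 Plates were coated with IgG from antiserum to Immunogen III, and JWH-250 standards (0–40 ng/ml) competed with hapten-HRP conjugate for 1 h at 25°C. Detection used TMB with A450. IC50 is the concentration giving half the 0 ng/ml OD on a 4-parameter fit, and cross-reactivity was taken from calibration curves using a single level of each cross-reactant.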

Antibody to Immunogen VI = system: Antibody to Immunogen VI
How it was run: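 Plates coated with IgG from anti-Immunogen VI antiserum; RCS-4 standards (0–20 ng/ml) compete with hapten-HRP conjugate for 1 h at 25°C. TMB read at 450 nm, 4-parameter fit; IC50 at half the zero-standard OD. Cross-reactivity from single-level cross-reactant solutions against calibration curves.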

[2] = Cross-reactants at 100 ng/ml, 1000ng/ml, single level of cross reactants

Compound | %B/B0 (Antibody to Immunogen V; [2]) [%] | %B/B0 [1, 2] [%] | %B/B0 (Antibody to Immunogen VI; [2]) [%] | other results
COc1ccc(C(=O)c2cn(CCCCCO)c3ccccc23)cc1 [RCS-4 N-(5-hydroxypentyl) metabolite] | 63.69 | 72.34 | 3.76 | –
CCCCCn1cc(C(=O)c2ccc(OC)cc2)c2ccccc21 [RCS-4] | 64.84 | 57.10 | 4.90 | IC50 (Antibody to Immunogen VI; standard RCS-4, standard concentration which produces 50% B/B0): 1.020 ng/mL; %B/B0 (Antibody to Immunogen VI; standard curve, RCS-4 0.3125 ng/ml): 74%; %B/B0 (Antibody to Immunogen VI; standard curve, RCS-4 0.625 ng/ml): 60%; %B/B0 (Antibody to Immunogen VI; standard curve, RCS-4 1.25 ng/ml): 46%; %B/B0 (Antibody to Immunogen VI; standard curve, RCS-4 2.5 ng/ml): 34%; %B/B0 (Antibody to Immunogen VI; standard curve, RCS-4 5 ng/ml): 25%; %B/B0 (Antibody to Immunogen VI; standard curve, RCS-4 10 ng/ml): 18%; %B/B0 (Antibody to Immunogen VI; standard curve, RCS-4 20 ng/ml): 13%
COc1cccc(CC(=O)c2cn(CCC3CCCCC3)c3ccccc23)c1 [RCS-8 3-methoxy isomer] | 38.01 | 69.47 | 79.95 | –
COc1ccc(CC(=O)c2cn(CCC3CCCCC3)c3ccccc23)cc1 [RCS-8 4-methoxy isomer] | 81.97 | 76.06 | 89.48 | –
COc1ccccc1CC(=O)c1cn(CCC2CCCCC2)c2ccccc12 [RCS-8 (SR-18)] | 8.34 | 64.72 | 85.46 | IC50 (Antibody to Immunogen V; standard RCS-8, standard concentration which produces 50% B/B0): 7.23 ng/mL; %B/B0 (Antibody to Immunogen V; standard curve, RCS-8 1.25 ng/ml): 82%; %B/B0 (Antibody to Immunogen V; standard curve, RCS-8 2.5 ng/ml): 71%; %B/B0 (Antibody to Immunogen V; standard curve, RCS-8 5 ng/ml): 57%; %B/B0 (Antibody to Immunogen V; standard curve, RCS-8 10 ng/ml): 43%; %B/B0 (Antibody to Immunogen V; standard curve, RCS-8 20 ng/ml): 34%; %B/B0 (Antibody to Immunogen V; standard curve, RCS-8 40 ng/ml): 25%; %B/B0 (Antibody to Immunogen V; standard curve, RCS-8 80 ng/ml): 19%
NCCc1c[nH]c2ccc(O)cc12 [Serotonin HCl] | 85.91 | 87.69 | 98.60 | –
O=C(c1cccc2ccccc12)c1cn(CCN2CCOCC2)c2ccccc12 [WIN 55,225 (other name JWH-200)] | 49.45 | 88.39 | 71.03 | –
COc1ccc(C(=O)c2c(C)n(CCN3CCOCC3)c3ccccc23)cc1 [WIN-48,098 (other name Pravadoline), Pravadoline] | 77.87 | 89.21 | 23.84 | –
CS(=O)(=O)O.Cc1c(C(=O)c2cccc3ccccc23)c2cccc3c2n1[C@@H](CN1CCOCC1)CO3 [Win 55,212-3 mesylate] | 72.78 | 87.64 | 83.98 | –
(+)-CP 55,940 | 74.18 | 92.49 | 94.76 | –
(-)-11-nor-9-Carboxy-delta9-THC | – | – | – | %B/B0 (Antibody to Immunogen V): 89.31%; %B/B0 [1]: 89.45%; %B/B0 (Antibody to Immunogen VI): 96.32%
(-)-CP 55,940 | 91.41 | 90.16 | 94.76 | –
